Measurements reported in PMC7377239, “Cardiovascular Effects of Polychlorinated Biphenyls and Their Major Metabolites” (Environmental Health Perspectives, 2020).
Where a name gives a salt, the structure may show the parent alone. Read-outs that look alike come from different tables or passages of the source.

What was measured:
[1] = tested on: iCell cardiomyocytes (human iPSC-derived cardiomyocytes); experiment: High-content imaging of cytotoxicity and mitochondrial integrity in iPSC-CMs; format: cell-based; conditions: Homo sapiens, Cardiomyocyte, cardiomyocytes (cm)
In short: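 Cardiomyocytes grown on gelatinized 384-well plates received fresh medium on the experiment day and were then exposed to chemicals at 0.01–100μM. Nuclei and mitochondria were labeled with Hoechst 33342 and MitoTracker™ Orange, then fixed, and imaged on an ImageXpress® Micro Confocal system. Four-parameter logistic concentration–response fits in R, with a one-standard-deviation vehicle cutoff, gave point-of-departure values.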

HUVECs = experiment: High-content imaging cytotoxicity in HUVECs, 24 h; format: cell-based, human; conditions: Homo sapiens, HUVEC, 24 h, HUVEC, 24 hr
In short: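 Confluent HUVEC monolayers, passages 1–5, received test chemicals for 24 h. Cytotoxicity was scored from triple-stain high-content images, with PODs defined by a one-SD deviation from 0.5% DMSO vehicle controls.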

O=S(=O)(O)Oc1ccc(-c2ccc(Cl)cc2)cc1 [4'-PCB 3 sulfate]
minimal effective concentration ([1]; 1.5 h, cam, 90 min, read-out: POD cm.cam.90min): 100 µM | minimal effective concentration ([1]; 1.5 h, mii, 90 min, read-out: POD cm.mii.90min): 100 µM | minimal effective concentration ([1]; 1.5 h, mito, 90 min, read-out: POD cm.mito.90min): 100 µM | minimal effective concentration ([1]; 1.5 h, tc, 90 min, read-out: POD cm.tc.90min): 100 µM | minimal effective concentration ([1]; 24 h, cam, 24 hrs, read-out: POD cm.cam.24hrs): 100 µM | minimal effective concentration ([1]; 24 h, mii, 24 hrs, read-out: POD cm.mii.24hrs): 53.5 µM | minimal effective concentration ([1]; 24 h, mito, 24 hrs, read-out: POD cm.mito.24hrs): 100 µM | minimal effective concentration ([1]; 24 h, tc, 24 hrs, read-out: POD cm.tc.24hrs): 100 µM | minimal effective concentration (HUVECs; cyto, read-out: POD huvec.cyto.24hr): 100 µM | minimal effective concentration (HUVECs; mito, read-out: POD huvec.mito.24hr): 100 µM | minimal effective concentration (HUVECs; mitoint, read-out: POD huvec.mitoint.24hr): 100 µM | minimal effective concentration (HUVECs; nma, read-out: POD huvec.nma.24hr): 100 µM | minimal effective concentration (HUVECs; tc, read-out: POD huvec.tc.24hr): 100 µM
